Measured values: patent US20150011751A1, “NOVEL TRIAZINE DERIVATIVE” (CARNA BIOSCIENCES, INC., priority 2012, published 2015)

These molecules were tested on intracellular BTK (pY223) in Ramos cells (assay: cells). Conditions: Homo sapiens, read-out: BTK phosphorylation inhibitory activity.
Procedure: The supernatant was recovered by a centrifugal operation (at 15,000 rpm for 15 minutes) and the amount of protein was quantitatively determined. The supernatant was mixed with SDS-sample buffer and the mixture was reacted at 95° C. for 5 minutes thereby modifying the protein to obtain a sample solution. […] Thereafter, the protein in the gel was transferred to a PVDF membrane, using an iBlot gel transfer system (Life Technologies Corporation).
The unreacted secondary antibody was washed with TBST buffer and reacted according to the attached protocol, using ECL Prime Western Blotting Detection System (GE Healthcare Ltd.), and then each band was detected by chemiluminescence using a CCD camera (ATTO, Light-CaptureII). The detected band was digitized by densitometry (ATTO CS Analyzer ver.3.0) and an inhibition ratio was calculated from the intensity of a band in each group on the assumption that luminescence of a band of phosphorylated BTK of the compound no-addition and IgM stimulated group is 100%, whereas, luminescence of a band of phosphorylated BTK of the compound no-addition and IgM non-stimulated group is 0%. Each band of phosphorylated BTK was corrected by the total BTK.
Thereafter, IgM (Invitrogen, H15100) diluted with the medium was added so that the final concentration becomes 10 μg/mL, followed by incubation at 37° C. for 10 minutes.
The intracellular BTK autophosphorylation inhibiting activity was indicated with the mark “***” when 70% or more, with the mark “**” when 50% or more and less than 70%, and with the mark “*” when 30% or more and less than 50%.

| Compound | inhibition at 0.3 µM [%] |
| --- | --- |
| Cn1ccc(Nc2nc(N)nc(-c3cccc(N4CCc5cc(C6CC6)cc(F)c5C4=O)c3CO)n2)c1 [Example 213, 2-(3-{4-Amino-6-[(1-meth-yl-1H-pyrrol-3-yl)amino]-1,3,5-triazin-2-yl}-2-(hydroxymethyl)phenyl)-6-cyclopropyl-8-fluoro-3,4-dihydro-isoquinolin-1(2H)-one] | > 70 |
| Cc1c(-c2nc(N)nc(Nc3ccc(C(=O)N4CCOCC4)cc3)n2)cccc1N1Cc2cc(C(C)(C)C)ccc2C1=O [Example 33, 2-[3-(4-Amino-6-{[4-(morpholine-4-carbonyl)phenyl]amino}-1,3,5-triazin-2-yl)-2-methylphenyl]-5-(tert-butyl)isoindolin-1-one] | > 70 |
| Cn1cc(Nc2nc(N)nc(-c3cccc(N4CCc5cc(C6CC6)cc(F)c5C4=O)c3CO)n2)cn1 [Example 180, 2-(3-{4-Amino-6-[(1-methyl-1H-pyrazol-4-yl)amino]-1,3,5-triazin-2-yl}-2-(hydroxymeth-yl)phenyl)-6-cyclopro-pyl-8-fluoro-3,4-dihy-droisoquinolin-1(2H)-one] | > 70 |
| CN(C)CCCOc1ccc(Nc2nc(N)nc(-c3cccc(NC(=O)c4ccc(C(C)(C)C)cc4)c3CO)n2)cc1 [Example 70, N-{3-[4-Amino-6-({4-[3-(dimethylamino)prop-oxy]phenyl}amino)-1,3,5-triazin-2-yl]-2-(hydroxy-methyl)phenyl}-4-(tert-butyl)benzamide] | > 70 |
| Cc1c(NC(=O)c2ccc(C(C)(C)C)cc2)cccc1-c1nc(N)nc(Nc2ccc(C(=O)N3CCOCC3CO)cc2)n1 (centres unmarked) [Example 31, N-{3-[4-Amino-6-({4-[3-(hydroxymethyl)morpho-line-4-carbonyl]phe-nyl}amino)-1,3,5-tria-zin-2-yl]-2-methylphe-nyl}-4-(tert-butyl) benzamide] | > 70 |
| Cc1c(NC(=O)c2ccc(C(C)(C)C)cc2)cccc1-c1nc(N)nc(Nc2ccc(C(=O)N3CCOC(CO)C3)cc2)n1 (centres unmarked) [Example 30, N-{3-[4-Amino-6-({4-[2-(hydroxymethyl)morpho-line-4-carbonyl]phe-nyl}amino)-1,3,5-tria-zin-2-yl]-2-methylphe-nyl}-4-(tert-butyl)benz-amide] | > 70 |

These molecules were tested against Dephosphorylated BTK (Homo sapiens, UniProt Q06187) (assay: Test of activity inhibition against dephosphorylated BTK (mobility shift assay)). Conditions: not given.
Sequence of Dephosphorylated BTK (Q06187 whole entry): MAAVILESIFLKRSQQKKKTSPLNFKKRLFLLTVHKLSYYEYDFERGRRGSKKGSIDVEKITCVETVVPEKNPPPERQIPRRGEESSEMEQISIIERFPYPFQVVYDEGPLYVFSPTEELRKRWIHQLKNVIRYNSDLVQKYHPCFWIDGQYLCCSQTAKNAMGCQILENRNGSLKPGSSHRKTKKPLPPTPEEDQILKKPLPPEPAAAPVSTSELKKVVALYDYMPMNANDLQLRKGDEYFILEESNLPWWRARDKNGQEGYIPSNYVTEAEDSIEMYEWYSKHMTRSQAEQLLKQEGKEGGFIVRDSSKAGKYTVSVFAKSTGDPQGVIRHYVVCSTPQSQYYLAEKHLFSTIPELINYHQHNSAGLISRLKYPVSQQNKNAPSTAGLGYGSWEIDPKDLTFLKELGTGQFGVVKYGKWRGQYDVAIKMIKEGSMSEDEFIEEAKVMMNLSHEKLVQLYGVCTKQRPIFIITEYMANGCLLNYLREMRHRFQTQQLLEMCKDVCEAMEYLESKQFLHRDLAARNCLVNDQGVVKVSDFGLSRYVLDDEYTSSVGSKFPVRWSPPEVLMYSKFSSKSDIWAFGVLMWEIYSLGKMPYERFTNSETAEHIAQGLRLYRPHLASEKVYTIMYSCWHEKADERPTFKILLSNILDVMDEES

| Compound | IC50 [nM] |
| --- | --- |
| CN(C)CCCOc1ccc(Nc2nc(N)nc(-c3cccc(NC(=O)c4ccc(C(C)(C)C)cc4)c3CO)n2)cc1 [Example 70, N-{3-[4-Amino-6-({4-[3-(dimethylamino)prop-oxy]phenyl}amino)-1,3,5-triazin-2-yl]-2-(hydroxy-methyl)phenyl}-4-(tert-butyl)benzamide] | 1 |
| Cc1c(NC(=O)c2ccc(C(C)(C)C)cc2)cccc1-c1nc(N)nc(Nc2ccc(C(=O)N3CCOCC3CO)cc2)n1 (centres unmarked) [Example 31, N-{3-[4-Amino-6-({4-[3-(hydroxymethyl)morpho-line-4-carbonyl]phe-nyl}amino)-1,3,5-tria-zin-2-yl]-2-methylphe-nyl}-4-(tert-butyl) benzamide] | 1.5 |
| Cc1c(NC(=O)c2ccc(C(C)(C)C)cc2)cccc1-c1nc(N)nc(Nc2ccc(C(=O)N3CCOC(CO)C3)cc2)n1 (centres unmarked) [Example 30, N-{3-[4-Amino-6-({4-[2-(hydroxymethyl)morpho-line-4-carbonyl]phe-nyl}amino)-1,3,5-tria-zin-2-yl]-2-methylphe-nyl}-4-(tert-butyl)benz-amide] | 1.3 |
| Cc1c(NC(=O)c2ccc(C(C)(C)C)cc2)cccc1-c1ncnc(Nc2ccc(C(=O)NC(CO)CO)cc2)n1 [Example 19, 4-(tert-Butyl)-N-{3-[4-({4-[(1,3-dihydroxypropan-2-yl)carbamoyl]phenyl}amino)-1,3,5-triazin-2-yl]-2-methyl-phenyl}benzamide] | 6.1 |
| CC(C)(C)c1ccc(C(=O)Nc2cccc(-c3ncnc(Nc4ccc(C(=O)N5CCOCC5)cc4)n3)c2CO)cc1 [Example 115, 4-(tert-Butyl)-N-[2-(hy-droxymethyl)-3-(4-{[4-(morpholine-4-carbo-nyl)phenyl]amino}-1,3,5-triazin-2-yl)phe-nyl]benzamide] | 9.4 |
| CC(C)(F)c1ccc(C(=O)Nc2cccc(-c3nc(N)nc(Nc4ccc(N5CCOCC5)cc4)n3)c2CO)cc1 [Example 209, N-(3-{4-Amino-6-[(4-morpholinophenyl)amino]-1,3,5-triazin-2-yl}-2-(hydroxymethyl)phe-nyl)-4-(2-fluoropropan-2-yl)benzamide] | 1.4 |
| Cc1nccn1-c1ccc(Nc2nc(N)nc(-c3cccc(NC(=O)c4ccc(C(C)(C)C)cc4)c3CO)n2)cc1 [Example 172, N-[3-(4-Amino-6-{[4-(2-methyl-1H-imidazol-1-yl)phenyl]amino}-1,3,5-triazin-2-yl)-2-(hy-droxymethyl)phenyl]-4-(tert-butyl)benzamide] | 0.6 |
| CC(C)(C)c1ccc(C(=O)Nc2cccc(-c3nc(N)nc(Nc4cccc(Cn5cncn5)c4)n3)c2CO)cc1 [Example 162, N-{3-[4-({3-[(1H-1,2,4-Triazol-1-yl)methyl]phenyl}amino)-6-amino-1,3,5-triazin-2-yl]-2-(hydroxymethyl)phe-nyl}-4-(tert-butyl) benzamide] | 0.5 |
| COC(=O)c1cccc(Nc2nc(N)nc(-c3cccc(NC(=O)c4ccc(C(C)(C)C)cc4)c3CO)n2)c1 [Example 142, Methyl 3-[(4-amino-6-{3-[4-(tert-butyl)benzamido]-2-(hydroxymethyl)phe-nyl}-1,3,5-triazin-2-yl)amino]benzoate] | 3.1 |
| CC(C)(C)c1ccc(C(=O)Nc2cccc(-c3nc(N)nc(Nc4ccc(-n5ccnc5)cc4)n3)c2CO)cc1 [Example 185, N-[3-(4-{[4-(1H-Imida-zol-1-yl)phenyl]amino}-6-amino-1,3,5-triazin-2-yl)-2-(hydroxymeth-yl)phenyl]-4-(tert-butyl)benzamide] | 1.2 |
| CC(C)(C)c1ccc(C(=O)Nc2cccc(-c3nc(N)nc(Nc4ccc(C(N)=O)cc4)n3)c2CO)cc1 [Example 149, N-(3-{4-Amino-6-[(4-carbamoylphenyl)amino]-1,3,5-triazin-2-yl}-2-(hydroxymethyl)phe-nyl)-4-(tert-butyl) benzamide] | 0.5 |
| CC(C)(C)c1ccc(C(=O)Nc2cccc(-c3nc(N)nc(Nc4cccc(C(=O)O)c4)n3)c2CO)cc1 [Example 153, 3-[(4-Amino-6-{3-[4-(tert-butyl)benzamido]-2-(hydroxymethyl)phe-nyl}-1,3,5-triazin-2-yl)amino]benzoic acid] | 4.9 |

Next, values leading:

| IC50 [nM] | Compound |
| --- | --- |
| 1.1 | Cn1ccc(Nc2nc(N)nc(-c3cccc(N4CCc5cc(C6CC6)cc(F)c5C4=O)c3CO)n2)c1 [Example 213, 2-(3-{4-Amino-6-[(1-meth-yl-1H-pyrrol-3-yl)amino]-1,3,5-triazin-2-yl}-2-(hydroxymethyl)phenyl)-6-cyclopropyl-8-fluoro-3,4-dihydro-isoquinolin-1(2H)-one] |
| 0.7 | Cn1cc(Nc2nc(N)nc(-c3cccc(N4CCc5cc(C6CC6)cc(F)c5C4=O)c3CO)n2)cn1 [Example 180, 2-(3-{4-Amino-6-[(1-methyl-1H-pyrazol-4-yl)amino]-1,3,5-triazin-2-yl}-2-(hydroxymeth-yl)phenyl)-6-cyclopro-pyl-8-fluoro-3,4-dihy-droisoquinolin-1(2H)-one] |
| 0.9 | COCCn1cc(Nc2nc(N)nc(-c3cccc(N4CCc5cc(C6CC6)cc(F)c5C4=O)c3CO)n2)cn1 [Example 212, 2-[3-(4-Amino-6-{[1-(2-methoxyethyl)-1H-py-razol-4-yl]amino}-1,3,5-triazin-2-yl)-2-(hy-droxymethyl)phenyl]-6-cyclopropyl-8-fluoro-3,4-dihydroisoquinolin-1(2H)-one] |
| 0.6 | Nc1nc(Nc2ccc(N3CCC(O)CC3)cc2)nc(-c2cccc(NC(=O)c3cc4c(s3)CCCC4)c2CO)n1 [Example 128, N-[3-(4-Amino-6-{[4-(4-hydroxypiperidin-1-yl)phenyl]amino}-1,3,5-triazin-2-yl)-2-(hy-droxymethyl)phenyl]-4,5,6,7-tetrahydrobenzo [b]thiophene-2-carbox-amide] |
| 0.9 | Nc1nc(Nc2ccc(OC3CCOCC3)c(F)c2)nc(-c2cccc(N3CCc4cc(C5CC5)cc(F)c4C3=O)c2CO)n1 [Example 194, 2-{3-[4-Amino-6-({3-fluoro-4-[(tetrahydro-2H-pyran-4-yl)oxy]phe-nyl}amino)-1,3,5-tria-zin-2-yl]-2-(hydroxy-methyl)phenyl}-6-cyclo-propyl-8-fluoro-3,4-dihydroisoquinolin-1(2H)-one] |
| 1.7 | Nc1nc(Nc2cnn(CC(F)F)c2)nc(-c2cccc(N3CCc4cc(C5CC5)cc(F)c4C3=O)c2CO)n1 [Example 275, 2-[3-(4-Amino-6-{[1-(2,2-difluoroethyl)-1H-pyrazol-4-yl]amino}-1,3,5-triazin-2-yl)-2-(hydroxymethyl)phenyl]-6-cyclopropyl-8-fluoro-3,4-dihydroisoquinolin-1(2H)-one] |
| 1.7 | CCn1ccc(Nc2nc(N)nc(-c3cccc(N4CCc5cc(C6CC6)cc(F)c5C4=O)c3CO)n2)c1 [Example 231, 2-(3-{4-Amino-6-[(1-eth-yl-1H-pyrrol-3-yl)ami-no]-1,3,5-triazin-2-yl}-2-(hydroxymethyl)phenyl)-6-cyclopropyl-8-fluoro-3,4-dihydro-isoquinolin-1(2H)-one] |
| 2.7 | CN(CCO)c1ccc(Nc2nc(N)nc(-c3cccc(N4CCc5cc(C6CC6)cc(F)c5C4=O)c3CO)n2)cc1 [Example 246, 2-{3-[4-Amino-6-({4-[(2-hydroxyethyl)(meth-yl)amino]phenyl}amino)-1,3,5-triazin-2-yl]-2-(hydroxymethyl)phe-nyl}-6-cyclopropyl-8-fluoro-3,4-dihydroiso-quinolin-1(2H)-one] |
| 1 | CC(C)(C#N)c1cc(F)c2c(c1)CCN(c1cccc(-c3nc(N)nc(Nc4cn[nH]c4)n3)c1CO)C2=O [Example 206, 2-[2-(3-{4-[(1H-Pyrazol-4-yl)amino]-6-amino-1,3,5-triazin-2-yl}-2-(hydroxymethyl)phe-nyl)-8-fluoro-1-oxo-1,2,3,4-tetrahydro-isoquinolin-6-yl]-2-meth-ylpropanenitrile] |
| 1.4 | N#CCc1ccc(Nc2nc(N)nc(-c3cccc(N4CCc5cc(C6CC6)cc(F)c5C4=O)c3CO)n2)cc1 [Example 190, 2-[4-({4-Amino-6-[3-(6-cyclopropyl-8-fluoro-1-oxo-3,4-dihydroiso-quinolin-2(1H)-yl)-2-(hydroxymethyl)phenyl]-1,3,5-triazin-2-yl}amino)phenyl]acetonitrile] |
| 2.6 | CC(C)(C)c1ccc(C(=O)Nc2cccc(-c3nc(N)nc(Nc4ccc(O)c(F)c4)n3)c2CO)cc1 [Example 113, N-(3-{4-Amino-6-[(3-fluoro-4-hydroxyphenyl)amino]-1,3,5-triazin-2-yl}-2-(hydroxymeth-yl)phenyl)-4-(tert-butyl)benzamide] |
| 0.8 | CC(C)(C)c1ccc(C(=O)Nc2cccc(-c3nc(N)nc(Nc4ccc(N5CCC(O)CC5)cc4)n3)c2CO)cc1 [Example 107, N-[3-(4-Amino-6-{[4-(4-hydroxypiperidin-1-yl)phenyl]amino}-1,3,5-triazin-2-yl)-2-(hy-droxymethyl)phenyl]-4-(tert-butyl)benzamide] |
| 0.3 | Nc1nc(Nc2ccc(N3CCNCC3)cc2)nc(-c2cccc(NC(=O)c3cc4c(s3)CCCC4)c2CO)n1 [Example 147, N-[3-(4-Amino-6-{[4-(piperazin-1-yl)phenyl]amino}-1,3,5-triazin-2-yl)-2-(hydroxymeth-yl)phenyl]-4,5,6,7-tetra-hydrobenzo[b]thio-phene-2-carboxamide] |
| 0.8 | Nc1nc(Nc2cnn(CCN3CCOCC3)c2)nc(-c2cccc(N3CCc4cc(C5CC5)cc(F)c4C3=O)c2CO)n1 [Example 237, 2-[3-(4-Amino-6-{[1-(2-morpholinoethyl)-1H-pyrazol-4-yl]amino}-1,3,5-triazin-2-yl)-2-(hydroxymethyl)phenyl]-6-cyclopropyl-8-fluoro-3,4-dihydro-isoquinolin-1(2H)-one] |
